The text below walks through data of patent publication US20090270413A1, “DI-T-BUTYLPHENYL PIPERAZINES AS CALCIUM CHANNEL BLOCKERS” (priority 2008, published 2009).

Structures are written as SMILES.

This experiment deals with T1, Human Cav2.2 channels (Homo sapiens, UniProt Q00975).
T1 construct: expressed in transfected cells
Description: Block of Cav2.2 (N-type) channels expressed in HEK293 cells. In kind it is cell-based. Conditions: HEK293; for inhibition at 10 µM: read-out: Cav 2.2 % Inh @ 10 μM; for inhibition at 30 µM: read-out: Cav 2.2 % Inh @ 30 μM. An excerpt: Human Cav2.2 channels were stably expressed in HEK293 cells along with alpha2-delta and beta subunits of voltage-gated calcium channels. An inwardly rectifying potassium channel (Kir2.3) was also expressed in these cells to allow more precise control of the cell membrane potential by extracellular potassium concentration. At low bath potassium concentration, the membrane potential is relatively negative, and is depolarized as the bath potassium concentration is raised. In this way, the bath potassium concentration can be used to regulate the voltage-dependent conformations of the channels. Compounds are incubated with cells in the presence of low (4 mM) potassium or elevated (12, 25 or 30 mM) potassium to determine the affinity for compound block of resting (closed) channels at 4 mM potassium or affinity for block of open and inactivated channels at 12, 25 or 30 mM potassium. After the incubation period, Cav2.2 channel opening is triggered by addition of higher concentration of potassium (70 mM final concentration) to further depolarize the cell. The degree of state-dependent block can be estimated from the inhibitory potency of compounds after incubation in different potassium concentrations.
Calcium influx through Cav2.2 channels is determined using a calcium sensitive fluorescent dye in combination with a fluorescent plate reader. Fluorescent changes were measured with either a VIPR (Aurora Instruments) or FLIPR (Molecular Devices) plate reader.
Protocol • 1. Seed cells in Poly-D-Lysine Coated 96 or 384-well plate and keep in a 37° C.-10% CO2 incubator overnight • 2. Remove media, wash cells with 0.2 mL (96-well plate) or 0.05 mL (384-well plate) Dulbecco's Phosphate Buffered Saline (D-PBS) with calcium & magnesium (Invitrogen; 14040) • 3. Add 0.1 mL (96-well plate) or 0.05 mL (384-well plate) of 4 μM fluor-4 (Molecular Probes; F-14202) and 0.02% Pluronic acid (Molecular Probes; P-3000) prepared in D-PBS with calcium & magnesium (Invitrogen; 14040) supplemented with 10 mM Glucose & 10 mM Hepes/NaOH; pH 7.4 • 4. Incubate in the dark at 25° C. for 60-70 min • 5. Remove dye, wash cells with 0.1 mL (96-well plate) or 0.06 mL (384-well plate) of 4, 12, 25, or 30 mM Potassium Pre-polarization Buffer (PPB) • 6. Add 0.1 mL (96-well plate) or 0.03 mL (384-well plate) of 4, 12, 25, 30 mM PPB with or without test compound • 7. Incubate in the dark at 25° C. for 30 min • 8. Read cell plate on VIPR instrument, Excitation=480 nm, Emission=535 nm • 9. With VIPR continuously reading, add 0.1 mL (96-well plate) or 0.03 mL (384-well plate) of Depolarization Buffer (DB), which is 2× the final assay concentration, to the cell plate.
Block of N-type calcium channels is evaluated utilizing the IonWorks HT 384 well automated patch clamp electrophysiology device. This instrument allows synchronous recording from 384 well (48 at a time). A single whole cell recording is made in each well. Whole cell recording is established by perfusion of the internal compartment with amphotericin B.
The voltage protocol is designed to detect use-dependent block. A 2 Hz train of depolarizations (twenty 25 ms steps to +20 mV). The experimental sequence consists of a control train (pre-compound), incubation of cells with compound for 5 minutes, followed by a second train (post-compound). Use dependent block by compounds is estimated by comparing fractional block of the first pulse in the train to block of the 20th pulse.
Parallel patch clamp electrophysiology is performed using IonWorks HT (Molecular Devices Corp) essentially as described by Kiss and colleagues (Kiss et al. 2003; Assay and Drug Development Technologies, 1:127-135). Briefly, a stable HEK 293 cell line (referred to as CBK) expressing the N-type calcium channel subunits (α1B, α2δ, β3a) and an inwardly rectifying potassium channel (Kir2.3) is used to record barium current through the N-type calcium channel. Cells are grown in T75 culture plates to 60-90% confluence before use. […]

T1 sequence (Q00975 whole entry): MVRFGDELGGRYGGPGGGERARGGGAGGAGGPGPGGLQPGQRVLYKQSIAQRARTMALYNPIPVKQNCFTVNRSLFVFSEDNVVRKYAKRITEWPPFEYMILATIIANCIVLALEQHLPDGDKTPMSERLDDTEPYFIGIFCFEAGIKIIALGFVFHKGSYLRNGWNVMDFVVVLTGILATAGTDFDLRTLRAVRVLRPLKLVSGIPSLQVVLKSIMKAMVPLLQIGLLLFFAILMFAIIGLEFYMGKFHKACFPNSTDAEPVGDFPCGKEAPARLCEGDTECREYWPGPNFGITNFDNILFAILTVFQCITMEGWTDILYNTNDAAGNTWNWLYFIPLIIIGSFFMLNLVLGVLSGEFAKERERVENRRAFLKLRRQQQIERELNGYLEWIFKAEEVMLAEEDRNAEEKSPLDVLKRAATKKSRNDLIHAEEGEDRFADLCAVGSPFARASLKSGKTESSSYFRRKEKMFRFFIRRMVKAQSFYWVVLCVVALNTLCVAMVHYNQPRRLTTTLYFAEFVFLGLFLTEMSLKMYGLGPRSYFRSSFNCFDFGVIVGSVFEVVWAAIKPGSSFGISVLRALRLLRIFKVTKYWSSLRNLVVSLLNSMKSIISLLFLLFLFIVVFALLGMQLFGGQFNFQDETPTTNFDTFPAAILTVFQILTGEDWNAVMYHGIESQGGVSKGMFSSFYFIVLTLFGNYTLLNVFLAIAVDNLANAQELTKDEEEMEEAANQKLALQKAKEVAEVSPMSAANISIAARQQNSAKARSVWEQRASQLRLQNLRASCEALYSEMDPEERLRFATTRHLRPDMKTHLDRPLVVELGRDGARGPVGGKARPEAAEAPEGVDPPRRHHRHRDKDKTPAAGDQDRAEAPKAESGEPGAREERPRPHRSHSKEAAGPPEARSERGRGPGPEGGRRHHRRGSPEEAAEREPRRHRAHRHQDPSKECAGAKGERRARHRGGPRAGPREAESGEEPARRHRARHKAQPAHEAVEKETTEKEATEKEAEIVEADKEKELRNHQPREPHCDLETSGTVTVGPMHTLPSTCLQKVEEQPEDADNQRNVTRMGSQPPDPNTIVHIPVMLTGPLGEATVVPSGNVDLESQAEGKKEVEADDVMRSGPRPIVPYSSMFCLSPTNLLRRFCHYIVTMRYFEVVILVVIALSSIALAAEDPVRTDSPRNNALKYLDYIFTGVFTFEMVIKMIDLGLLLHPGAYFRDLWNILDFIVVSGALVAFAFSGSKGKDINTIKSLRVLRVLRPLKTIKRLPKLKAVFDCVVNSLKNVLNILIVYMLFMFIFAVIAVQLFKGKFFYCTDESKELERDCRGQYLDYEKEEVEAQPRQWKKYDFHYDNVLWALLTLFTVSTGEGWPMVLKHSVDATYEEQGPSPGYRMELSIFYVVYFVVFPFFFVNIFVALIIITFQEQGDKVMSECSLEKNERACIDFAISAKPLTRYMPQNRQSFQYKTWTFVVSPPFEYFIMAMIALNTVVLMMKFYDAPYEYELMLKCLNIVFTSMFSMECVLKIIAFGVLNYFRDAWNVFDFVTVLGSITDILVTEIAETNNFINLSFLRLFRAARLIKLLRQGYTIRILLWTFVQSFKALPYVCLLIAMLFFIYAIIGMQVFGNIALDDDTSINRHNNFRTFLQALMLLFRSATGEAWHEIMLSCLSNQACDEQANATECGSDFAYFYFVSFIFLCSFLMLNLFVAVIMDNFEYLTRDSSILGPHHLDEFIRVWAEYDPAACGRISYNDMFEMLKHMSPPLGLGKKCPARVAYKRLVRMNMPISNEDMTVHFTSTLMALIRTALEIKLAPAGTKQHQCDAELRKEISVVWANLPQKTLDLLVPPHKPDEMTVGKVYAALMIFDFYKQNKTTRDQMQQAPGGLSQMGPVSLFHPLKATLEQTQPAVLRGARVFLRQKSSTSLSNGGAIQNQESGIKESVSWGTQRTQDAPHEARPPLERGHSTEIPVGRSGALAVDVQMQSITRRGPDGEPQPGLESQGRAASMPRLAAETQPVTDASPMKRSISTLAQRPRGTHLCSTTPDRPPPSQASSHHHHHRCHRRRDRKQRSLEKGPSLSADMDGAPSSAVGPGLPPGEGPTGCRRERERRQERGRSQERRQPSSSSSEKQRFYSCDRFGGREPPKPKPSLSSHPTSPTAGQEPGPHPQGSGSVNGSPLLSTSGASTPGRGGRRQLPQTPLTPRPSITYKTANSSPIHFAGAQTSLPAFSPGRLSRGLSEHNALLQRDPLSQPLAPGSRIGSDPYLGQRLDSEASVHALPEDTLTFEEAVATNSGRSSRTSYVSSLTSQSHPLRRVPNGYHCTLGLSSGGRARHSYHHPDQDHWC
T1 sequence (P54289 25-956 partner limits assumed): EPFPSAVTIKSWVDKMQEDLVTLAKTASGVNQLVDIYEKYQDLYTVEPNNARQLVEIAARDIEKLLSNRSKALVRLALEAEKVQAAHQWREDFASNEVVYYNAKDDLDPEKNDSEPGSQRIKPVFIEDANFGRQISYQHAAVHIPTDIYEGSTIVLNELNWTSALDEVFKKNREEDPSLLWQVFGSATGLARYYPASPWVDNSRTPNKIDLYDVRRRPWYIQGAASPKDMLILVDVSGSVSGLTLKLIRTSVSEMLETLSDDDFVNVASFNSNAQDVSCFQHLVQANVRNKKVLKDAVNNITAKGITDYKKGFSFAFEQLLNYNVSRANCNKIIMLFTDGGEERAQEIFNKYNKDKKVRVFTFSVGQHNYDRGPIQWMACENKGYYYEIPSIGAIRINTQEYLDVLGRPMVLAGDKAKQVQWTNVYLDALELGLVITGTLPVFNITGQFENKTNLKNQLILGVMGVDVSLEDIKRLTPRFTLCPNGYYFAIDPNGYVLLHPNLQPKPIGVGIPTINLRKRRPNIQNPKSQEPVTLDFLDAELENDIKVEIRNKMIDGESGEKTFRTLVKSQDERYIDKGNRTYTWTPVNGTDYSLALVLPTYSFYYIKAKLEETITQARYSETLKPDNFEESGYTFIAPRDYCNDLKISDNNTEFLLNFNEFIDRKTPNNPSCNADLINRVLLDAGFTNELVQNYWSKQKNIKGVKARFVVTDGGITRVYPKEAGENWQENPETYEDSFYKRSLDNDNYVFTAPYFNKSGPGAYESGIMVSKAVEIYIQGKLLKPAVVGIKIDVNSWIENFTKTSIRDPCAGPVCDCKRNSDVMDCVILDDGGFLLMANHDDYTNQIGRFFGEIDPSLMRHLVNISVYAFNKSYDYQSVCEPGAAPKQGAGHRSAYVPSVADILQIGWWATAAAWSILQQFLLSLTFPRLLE
T1 sequence (P54289 957-1103 partner limits assumed): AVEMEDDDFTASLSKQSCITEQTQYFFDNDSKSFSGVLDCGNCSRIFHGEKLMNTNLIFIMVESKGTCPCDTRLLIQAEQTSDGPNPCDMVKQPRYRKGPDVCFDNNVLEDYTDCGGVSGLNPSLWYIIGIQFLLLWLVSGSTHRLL
T1 sequence (P54284 whole entry partner): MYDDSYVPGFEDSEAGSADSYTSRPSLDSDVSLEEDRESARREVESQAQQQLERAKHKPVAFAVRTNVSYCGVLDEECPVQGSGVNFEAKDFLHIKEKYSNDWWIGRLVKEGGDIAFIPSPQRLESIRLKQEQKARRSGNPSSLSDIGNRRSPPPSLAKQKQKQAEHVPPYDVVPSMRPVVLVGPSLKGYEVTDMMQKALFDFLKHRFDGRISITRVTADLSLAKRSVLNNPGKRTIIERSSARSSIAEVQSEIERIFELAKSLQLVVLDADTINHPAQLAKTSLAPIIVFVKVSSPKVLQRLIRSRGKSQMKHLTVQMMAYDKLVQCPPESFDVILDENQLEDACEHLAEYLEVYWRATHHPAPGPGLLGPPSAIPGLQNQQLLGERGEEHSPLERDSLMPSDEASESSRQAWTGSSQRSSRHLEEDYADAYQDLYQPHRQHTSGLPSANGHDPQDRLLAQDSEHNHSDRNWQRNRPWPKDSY

Consider `CC(C)(C)c1cc(N2CCN(C(=O)c3ccc(S(C)(=O)=O)cc3Cl)CC2)cc(C(C)(C)C)c1` [Compound 5, (2-chloro-4-(methylsulfonyl)phenyl)(4-(3,5-di-tert-butylphenyl)piperazin-1-yl)methanone], for which the inhibition at 10 µM was 85% and the inhibition at 30 µM is 96%.
Take `CC(C)(C)c1cc(N2CCN(C(=O)c3cc(C4CC4)nc4ccccc34)CC2)cc(C(C)(C)C)c1` [Compound 40, (2-cyclopropylquinolin-4-yl)(4-(3,5-di-tert-butylphenyl)piperazin-1-yl)methanone]: the inhibition at 10 µM worked out at 86% and the inhibition at 30 µM worked out at 91%.
Regarding `Cc1ccc(S(C)(=O)=O)cc1C(=O)N1CCN(c2cc(C(C)(C)C)cc(C(C)(C)C)c2)CC1` [Compound 26, (4-(3,5-di-tert-butylphenyl)piperazin-1-yl)(2-methyl-5-(methylsulfonyl)phenyl)methanone], the inhibition at 10 µM was found to be 87% and the inhibition at 30 µM was 98%.
As to `CC(C)(C)c1cc(N2CCN(C(=O)c3cc(S(C)(=O)=O)ccc3Cl)CC2)cc(C(C)(C)C)c1` [Compound 25, (2-chloro-5-(methylsulfonyl)phenyl)(4-(3,5-di-tert-butylphenyl)piperazin-1-yl)methanone], the inhibition at 10 µM was found to be 89% and the inhibition at 30 µM was 99%.
For `CC(C)(C)c1cc(N2CCN(C(=O)c3cc(-c4ccccc4)nc(-c4ccccc4)c3)CC2)cc(C(C)(C)C)c1` [Compound 50, (4-(3,5-di-tert-butylphenyl)piperazin-1-yl)(2,6-diphenylpyridin-4-yl)methanone], the inhibition at 10 µM is 20% and the inhibition at 30 µM turned out to be 26%.
For `CCOc1ccc(C(=O)N2CCN(c3cc(C(C)(C)C)cc(C(C)(C)C)c3)CC2)o1` [Compound 51, (4-(3,5-di-tert-butylphenyl)piperazin-1-yl)(5-ethoxyfuran-2-yl)methanone], in that order: 98% and 100%.
As for `CC(C)(C)c1cc(N2CCN(C(=O)c3nsc(Cl)c3Cl)CC2)cc(C(C)(C)C)c1` [Compound 46, (4-(3,5-di-tert-butylphenyl)piperazin-1-yl)(4,5-dichloroisothiazol-3-yl)methanone], the inhibition at 10 µM worked out at 79% and the inhibition at 30 µM turned out to be 89%.
Take `CC(C)(C)c1cc(N2CCN(C(=O)c3cc(C4CC4)n[nH]3)CC2)cc(C(C)(C)C)c1` [Compound 42, (3-cyclopropyl-1H-pyrazol-5-yl)(4-(3,5-di-tert-butylphenyl)piperazin-1-yl)methanone]: the inhibition at 10 µM came to 54% and the inhibition at 30 µM worked out at 98%.
For `CC(C)c1cc(C(=O)N2CCN(c3cc(C(C)(C)C)cc(C(C)(C)C)c3)CC2)on1` [Compound 24, (4-(3,5-di-tert-butylphenyl)piperazin-1-yl)(3-isopropylisoxazol-5-yl)methanone], the inhibition at 10 µM was 88% and the inhibition at 30 µM amounted to 96%.
As for `CC(C)c1ccc(C(=O)N2CCN(c3cc(C(C)(C)C)cc(C(C)(C)C)c3)CC2)cc1` [Compound 17, (4-(3,5-di-tert-butylphenyl)piperazin-1-yl)(4-isopropylphenyl)methanone], the inhibition at 10 µM stood at 80% and the inhibition at 30 µM is 97%.
On the same counts, the results for `Cc1oc(C(C)(C)C)cc1C(=O)N1CCN(c2cc(C(C)(C)C)cc(C(C)(C)C)c2)CC1` [Compound 35, (5-tert-butyl-2-methylfuran-3-yl)(4-(3,5-di-tert-butylphenyl)piperazin-1-yl)methanone] are 77% and 95%.
As to `CC(C)(C)c1cc(N2CCN(C(=O)c3csc(-c4cccc(C(F)(F)F)c4)n3)CC2)cc(C(C)(C)C)c1` [Compound 18, (4-(3,5-di-tert-butylphenyl)piperazin-1-yl)(2-(3-(trifluoromethyl)phenyl)thiazol-4-yl)methanone], the inhibition at 10 µM was 59% and the inhibition at 30 µM stood at 83%.
For `Cn1nc(C(C)(C)C)cc1C(=O)N1CCN(c2cc(C(C)(C)C)cc(C(C)(C)C)c2)CC1` [Compound 11, (3-tert-butyl-1-methyl-1H-pyrazol-5-yl)(4-(3,5-di-tert-butylphenyl)piperazin-1-yl)methanone], in that order: 91% and 97%.
On the same counts, the results for `CC(C)c1cc(C(=O)N2CCN(c3cc(C(C)(C)C)cc(C(C)(C)C)c3)CC2)c2cnn(C(C)C)c2n1` [Compound 27, (4-(3,5-di-tert-butylphenyl)piperazin-1-yl)(1,6-diisopropyl-1H-pyrazolo[3,4-b]pyridin-4-yl)methanone] are 59% and 83%.
On to `CC(C)(C)c1cc(N2CCN(C(=O)c3cc(F)cc(C(F)(F)F)c3)CC2)cc(C(C)(C)C)c1` [Compound 12, (4-(3,5-di-tert-butylphenyl)piperazin-1-yl)(3-fluoro-5-(trifluoromethyl)phenyl)methanone], for which the inhibition at 10 µM is 84% and the inhibition at 30 µM is 98%.
For the compound `CC(C)(C)c1cc(N2CCN(C(=O)c3ccc(C(O)(C(F)(F)F)C(F)(F)F)cc3)CC2)cc(C(C)(C)C)c1` [Compound 36, (4-(3,5-di-tert-butylphenyl)piperazin-1-yl)(4-(1,1,1,3,3,3-hexafluoro-2-hydroxypropan-2-yl)phenyl)methanone], the inhibition at 10 µM came to 32% and the inhibition at 30 µM amounted to 73%.
As to `CC(C)(C)c1cc(N2CCN(C(=O)c3cc4cc(C(F)(F)F)ccc4s3)CC2)cc(C(C)(C)C)c1` [Compound 39, (4-(3,5-di-tert-butylphenyl)piperazin-1-yl)(5-(trifluoromethyl)benzo[b]thiophen-2-yl)methanone], the inhibition at 10 µM was 15% and the inhibition at 30 µM came out at 41%.
Take `CC1CCc2sc(C(=O)N3CCN(c4cc(C(C)(C)C)cc(C(C)(C)C)c4)CC3)cc2C1` (centres unmarked) [Compound 43, (4-(3,5-di-tert-butylphenyl)piperazin-1-yl)(5-methyl-4,5,6,7-tetrahydrobenzo[b]thiophen-2-yl)methanone]: the inhibition at 10 µM amounted to 46% and the inhibition at 30 µM stood at 57%.
For `CCc1cc(C(=O)N2CCN(c3cc(C(C)(C)C)cc(C(C)(C)C)c3)CC2)sc1C` [Compound 52, (4-(3,5-di-tert-butylphenyl)piperazin-1-yl)(4-ethyl-5-methylthiophen-2-yl)methanone], the inhibition at 10 µM is 75% and the inhibition at 30 µM amounted to 88%.
On to `CC(C)(C)c1cc(N2CCN(C(=O)c3ccc(S(=O)(=O)C(C)(C)C)s3)CC2)cc(C(C)(C)C)c1` [Compound 21, (5-(tert-butylsulfonyl)thiophen-2-yl)(4-(3,5-di-tert-butylphenyl)piperazin-1-yl)methanone], for which the inhibition at 10 µM was found to be 53% and the inhibition at 30 µM was determined as 78%.
For the compound `CC(C)(C)c1cc(N2CCN(C(=O)c3cc4cccnc4nc3C(F)(F)F)CC2)cc(C(C)(C)C)c1` [Compound 19], the inhibition at 10 µM came out at 49% and the inhibition at 30 µM was found to be 69%.
`Cc1ccc(C(=O)N2CCN(c3cc(C(C)(C)C)cc(C(C)(C)C)c3)CC2)c(C)c1` [Compound 15, (4-(3,5-di-tert-butylphenyl)piperazin-1-yl)(2,4-dimethylphenyl)methanone]: the inhibition at 10 µM is 96% and the inhibition at 30 µM came to 93%.
